Structures are written as SMILES.

In the first series the test system is exploratory behavior in rats. The experiment in a line: Inhibition of exploratory behavior in rats (hole poking). The series is classed as in vivo, Sprague-Dawley rats. The following applies: Rattus norvegicus, ip, 0.5 h, read-out: dose required to diminish by 50% the exploratory behavior. The protocol:
8. Inhibition of Exploratory Behavior in Rats (Hole Poking).
This test is done with Sprague-Dawley male rats of about 300 g. Activity is evaluated with a […] XYZ activity cage connected to a […] […] DCM-4. A perforated plate (16 holes of 2-5 cm diameter) is placed in the enclosure and on the activity case to register vertical activity. The number of times the rat placed his snout into the holes during a 10 minute period is recorded. The test was started 30 minutes after the interperitoneal injection of the compound to be studied.
The results which are reported in Table 8 are expressed in terms of the dose required to diminish by 50% the exploratory behavior, with reference to animals injected with the carrier only. Diazepam and buspirone are used as standards.
As to `CN1C(=O)CN=C(c2ccccc2)c2cc(Cl)ccc21` [Diazepam], the ED50 came to 14.2 ± 5 mg/kg.

Test system in another series: not listed separately
The experiment in a line: Rotarod neurotoxicity test in mice. The following applies: mouse, in vivo, ip. Background: In the rotarod test animals must keep their balance on a rotating rod.
As to `CNC(C)C#Cc1ccccc1` (centres unmarked) [Compound 31], the TD50 at 0.5 h was not below 95 mg/kg.

The compound `CCNC(C)C#Cc1ccccc1` (centres unmarked) [Compound 32] registered a TD50 at 0.5 h not below 120 mg/kg.

A further series relates to righting reflex / ethanol narcosis in mice. The series can be described thus: Potentiation of sleeping time induced by ethanol in mice. It is filed as in vivo, CD #1 mice. The following applies: 5 mg/kg i.p., with ethanol. The protocol: 7. Potentiation of Sleeping Time Induced by Ethanol in Mice
This test was done with male CD #1 mice of 25-35 g. The mice are injected intraperitoneally (8 mice per dose). A subhypnotic dose of ethanol (12 ml/kg of 50% ethanol solution) is administered orally 30 minutes later.
The loss of the righting reflex is evaluated, for each animal, 30 minutes after the administration of the alcohol. It is considered that there is a potentialization of ethanol narcosis if the righting time exceeded 30 seconds.
The results which are reported in Table 7 are expressed in terms of the percentage of animals displaying a loss of the righting reflex versus the administered dose. Chlorpromazine (5 mg/kg i.p.) is used as a standard.
Take `CN(C)CCCN1c2ccccc2Sc2ccc(Cl)cc21` [Chlorpromazine, reference compound]: the “percentage of animals displaying a loss of the righting reflex” value was determined as 100%.

Test system in a further series: not listed separately
The series can be described thus: Acute toxicity test. The conditions noted are these: mouse, in vivo, ip. The protocol:
CD #1 mice (20-30 g) are used for this test. The animals are individualy housed in glass beakers for a 2 hour period of acclimatization without food and water.
On to `CN(CC#Cc1cccc(C(F)(F)F)c1)Cc1ccccc1` [Compound 5], for which the LD50 came out at 416 mg/kg.

For `CC(C#Cc1cccc(C(F)(F)F)c1)N(C)C` (centres unmarked) [Compound 7], the LD50 was determined as 220 mg/kg.

In turn, `FC(F)(F)c1cccc(C#CCNCCc2ccccc2)c1` [Compound 9] gave an LD50 of 252 mg/kg.

As to `C(#Cc1ccccc1)CN1CCCCC1` [Compound 11], the LD50 was 188 mg/kg.

Consider `FC(F)(F)c1cccc(C#CCNc2ccco2)c1` [Compound 15], for which the LD50 turned out to be 351 mg/kg.

In turn, `CC(C#Cc1ccccc1)NCc1ccccc1` (centres unmarked) [Compound 16] displayed a median lethal dose (LD50) of 309 mg/kg.

The compound `CC(C#Cc1cccc(C(F)(F)F)c1)NCc1ccccc1` (centres unmarked) [Compound 17] had a 50% lethal dose (LD50) of 366 mg/kg.

`CC(N)C#Cc1ccc([N+](=O)[O-])cc1` (centres unmarked) [Compound 20]: the LD50 was 152 mg/kg.

On to `CC(N)C#Cc1cccc(Cl)c1` (centres unmarked) [Compound 24], for which the LD50 is more than 100 mg/kg.

With `CCC(N)C#Cc1ccccc1` (centres unmarked) [Compound 25], the LD50 amounted to 84 mg/kg.

Turning to `CCNCC#Cc1ccccc1` [Compound 27], the median lethal dose (LD50) turned out to be 98 mg/kg. This LD50 and that of the compound before are within 1.5-fold of each other.

Compound `CC(N)C#Cc1ccccc1` (centres unmarked) [Compound 30] returned an LD50 of 66 mg/kg.

In turn, `CCN(CC)C(C)C#Cc1ccccc1` (centres unmarked) [Compound 33] had an LD50 of 88 mg/kg. This LD50 and that of the compound before are within 1.5-fold of each other.

The compound `C#CC(C)(C)N` [Compound 36] had an LD50 of 779 mg/kg.

The series is the same for the next values; noted with them: mouse, in vivo, ip; probit analysis.
Consider `CC(N)C#Cc1ccc(Cl)cc1` (centres unmarked) [Compound 1, 2-Amino-4-(p-chlorophenyl)-3-butyne], for which the LD50 amounted to 130 mg/kg.

In the case of `CC(N)C#Cc1ccc(C#N)cc1` (centres unmarked) [Compound 2, 2-Amino-4-(p-cyanophenyl)-3-butyne], the LD50 was more than 100 mg/kg.

For `CC(C)NC(C)C#Cc1ccccc1` (centres unmarked) [Compound 13], the LD50 came out at 120 mg/kg.

Compound `CC(C#Cc1ccccc1)Nc1ccco1` (centres unmarked) [Compound 18] had a 50% lethal dose (LD50) of approximately 300 mg/kg.

Compound `CC(N)C#Cc1ccc(C(=O)N(C)C)cc1` (centres unmarked) [Compound 21] yielded an LD50 of less than 100 mg/kg.

For `CC(N)C#Cc1ccc(C(N)=O)cc1` (centres unmarked) [Compound 22], the LD50 was more than 100 mg/kg.

The compound `COc1ccc(C#CC(C)N)cc1` (centres unmarked) [Compound 23] yielded an LD50 of more than 100 mg/kg.

The compound `NCC#Cc1ccccc1` [Compound 26] displayed an LD50 not below 100 mg/kg.

As to `CNC(C)C#Cc1ccccc1` (centres unmarked) [Compound 31], the LD50 was 95 mg/kg.

With `CCNC(C)C#Cc1ccccc1` (centres unmarked) [Compound 32], the median lethal dose (LD50) came to 120 mg/kg.

Consider `C#CC(C)NC` (centres unmarked) [Compound 34], for which the LD50 was found to be 828 mg/kg.

In a further series the test system is isolation induced aggressive behavior in mice. The experiment in a line: Inhibition of isolation induced fighting behavior in mice. It is filed as in vivo, CD #1 mice. The conditions noted are these: Mus musculus, ip, 0.5 h, read-out: ED50 (dose that suppressed aggressive behavior in 50% of the animals). The protocol: 1. Inhibition of Isolation Induced Fighting Behavior in Mice
After this period of confinement, the animals usually develop a marked intraspecific aggressive behavior when they are placed in the same cage.
The compound to be studied is administered i.p. to the selected groups (N=8 pairs/dose×5 doses) and the aggressive behavior is tested again 30 minutes later. […] A one week washout period is allowed between treatments.
`CNC(C)C#Cc1ccccc1` (centres unmarked) [Compound 31]: the ED50 turned out to be 12 mg/kg.

For `CCNC(C)C#Cc1ccccc1` (centres unmarked) [Compound 32], the ED50 was determined as 23 mg/kg.

Staying with this series, now noted: Mus musculus, ip, 0.5 h, read-out: ED50 (dose that suppressed aggressive behavior in 50% of the animals); i.p.; 30 minutes after administration; probit analysis.
Consider `CC(N)C#Cc1ccc(Cl)cc1` (centres unmarked) [Compound 1, 2-Amino-4-(p-chlorophenyl)-3-butyne], for which the ED50 amounted to 12 mg/kg.

Take `CC(N)C#Cc1ccc(C#N)cc1` (centres unmarked) [Compound 2, 2-Amino-4-(p-cyanophenyl)-3-butyne]: the ED50 came to 8 mg/kg.

Turning to `CN(CC#Cc1cccc(C(F)(F)F)c1)Cc1ccccc1` [Compound 5], the ED50 turned out to be 28 mg/kg.

For the compound `CC(C#Cc1cccc(C(F)(F)F)c1)N(C)C` (centres unmarked) [Compound 7], the ED50 worked out at 38 mg/kg.

For `FC(F)(F)c1cccc(C#CCNCCc2ccccc2)c1` [Compound 9], the ED50 is 58 mg/kg.

For the compound `C(#Cc1ccccc1)CN1CCCCC1` [Compound 11], the ED50 was found to be 27 mg/kg.

In the case of `CC(C)NC(C)C#Cc1ccccc1` (centres unmarked) [Compound 13], the ED50 is 27 mg/kg.

As to `FC(F)(F)c1cccc(C#CCNc2ccco2)c1` [Compound 15], the ED50 was 19 mg/kg.

As for `CC(C#Cc1ccccc1)NCc1ccccc1` (centres unmarked) [Compound 16], the ED50 was 101 mg/kg.

With `CC(C#Cc1cccc(C(F)(F)F)c1)NCc1ccccc1` (centres unmarked) [Compound 17], the ED50 amounted to 50 mg/kg.

For `CC(C#Cc1ccccc1)Nc1ccco1` (centres unmarked) [Compound 18], the ED50 was 64 mg/kg.

For `CC(C#Cc1cccc(C(F)(F)F)c1)Nc1ccco1` (centres unmarked) [Compound 19], the ED50 is 73 mg/kg.

As to `CC(N)C#Cc1ccc([N+](=O)[O-])cc1` (centres unmarked) [Compound 20], the ED50 was 10 mg/kg.

As to `COc1ccc(C#CC(C)N)cc1` (centres unmarked) [Compound 23], the ED50 was found to be 24 mg/kg.

With `CCC(N)C#Cc1ccccc1` (centres unmarked) [Compound 25], the ED50 stood at 16 mg/kg.

Consider `CCNCC#Cc1ccccc1` [Compound 27], for which the ED50 worked out at 17 mg/kg.

Consider `CC(N)C#Cc1ccccc1` (centres unmarked) [Compound 30], for which the ED50 turned out to be 15 mg/kg.

Consider `CCN(CC)C(C)C#Cc1ccccc1` (centres unmarked) [Compound 33], for which the ED50 turned out to be 44 mg/kg.

Consider `C#CC(C)NC` (centres unmarked) [Compound 34], for which the ED50 amounted to 26 mg/kg.

On to `C#CC(C)N(C)C` (centres unmarked) [Compound 35], for which the ED50 was 92 mg/kg.

On to `C#CC(C)(C)N` [Compound 36], for which the ED50 is 176 mg/kg.

The same series, now with this note: i.p., mice.
Take `CC(N)C#Cc1ccc(Cl)cc1` (centres unmarked) [Compound 1, 2-Amino-4-(p-chlorophenyl)-3-butyne]: the “inhibition of aggressive behavior (in words)” value is “particularly potent inhibitors”.

In the case of `CC(N)C#Cc1ccc(C#N)cc1` (centres unmarked) [Compound 2, 2-Amino-4-(p-cyanophenyl)-3-butyne], the “inhibition of aggressive behavior (in words)” value is listed as “particularly potent inhibitors”.

In another series the test system is conditioned avoidance response in rats. The series can be described thus: Inhibition of conditioned avoidance response in rats. It is filed as in vivo, Sprague Dawley rats. The conditions noted are these: 5 mg/kg i.p. The source says: 6. Inhibition of Conditioned Avoidance Response in Rats
Male Sprague Dawley rats (200-250 g) are trained to avoid an electric foot shock, by continuously changing room with the appropriate visuals and auditory signals, in an automatic 2-way conditioned avoidance apparatus (Coulbourn Instrument Co.). Only the animals that perform at least a 70% avoidance (3 successive training sessions) are kept for the experiment.
The day of the experiment, the selected animals are submitted to a pre-treatment control session. The compound to be studied is then administered i.p. and the animals are placed back in the apparatus for evaluation 30 minutes later. Diazepam was used as a standard.
As for `CN1C(=O)CN=C(c2ccccc2)c2cc(Cl)ccc21` [Diazepam], the conditioned avoidance response came out at 57.5%.

Test system in a further series: not listed separately
The series can be described thus: in vivo. The conditions noted are these: mouse, ip.
`CC(N)C#Cc1ccc(Cl)cc1` (centres unmarked) [Compound 1, 2-Amino-4-(p-chlorophenyl)-3-butyne] came in with a TD50 at 0.5 h of approximately 65 mg/kg.

In turn, `CC(N)C#Cc1ccc(C#N)cc1` (centres unmarked) [Compound 2, 2-Amino-4-(p-cyanophenyl)-3-butyne] yielded a TD50 at 0.5 h of more than 100 mg/kg.

`CN(CC#Cc1cccc(C(F)(F)F)c1)Cc1ccccc1` [Compound 5] yielded a TD50 at 0.5 h of 334 mg/kg.

`CC(C#Cc1cccc(C(F)(F)F)c1)N(C)C` (centres unmarked) [Compound 7] gave a TD50 at 0.5 h of 153 mg/kg.

`FC(F)(F)c1cccc(C#CCNCCc2ccccc2)c1` [Compound 9] yielded a TD50 at 0.5 h of 126 mg/kg.

With `C(#Cc1ccccc1)CN1CCCCC1` [Compound 11], the TD50 at 0.5 h came to 132 mg/kg.

Take `FC(F)(F)c1cccc(C#CCNc2ccco2)c1` [Compound 15]: the TD50 at 0.5 h turned out to be 193 mg/kg.

Turning to `CC(C#Cc1ccccc1)NCc1ccccc1` (centres unmarked) [Compound 16], the TD50 at 0.5 h was found to be 170 mg/kg.

`CC(C#Cc1cccc(C(F)(F)F)c1)NCc1ccccc1` (centres unmarked) [Compound 17] gave a TD50 at 0.5 h of 123 mg/kg.

`CC(N)C#Cc1ccc([N+](=O)[O-])cc1` (centres unmarked) [Compound 20] showed a TD50 at 0.5 h of approximately 120 mg/kg.

In turn, `CC(N)C#Cc1cccc(Cl)c1` (centres unmarked) [Compound 24] came in with a TD50 at 0.5 h of 50 mg/kg.

`CCC(N)C#Cc1ccccc1` (centres unmarked) [Compound 25] showed a TD50 at 0.5 h not below 84 mg/kg.

`CCNCC#Cc1ccccc1` [Compound 27] displayed a TD50 at 0.5 h of 88 mg/kg.

`CC(N)C#Cc1ccccc1` (centres unmarked) [Compound 30] displayed a TD50 at 0.5 h of approximately 50 mg/kg.

For `CCN(CC)C(C)C#Cc1ccccc1` (centres unmarked) [Compound 33], the TD50 at 0.5 h is not below 88 mg/kg.

In the case of `C#CC(C)(C)N` [Compound 36], the TD50 at 0.5 h is 391 mg/kg.

For orientation: LD50 means the dose expected to kill half of the subjects tested. A higher LD50 goes with lower toxicity.

The record behind these values is patent publication US5436273A, “Psychoactive propargylamine derivatives used in the treatment of anxiety, psychotic states or aggression” (Lowchol Scientific, Inc., priority 1993, dated 1995).
